Measured values as given in patent US20080090805A1, “CB-1 MODULATING COMPOUNDS AND THEIR USE” (ACADIA PHARMACEUTICALS INC., priority 2005, published 2008).

What was measured:
[1] = Clearance study, liver microsomes (human); settings: pH 7.4
[2] = Clearance study, liver microsomes (mice); settings: mouse, pH 7.4
[3] = Clearance study, liver microsomes (rats); settings: rat, pH 7.4
hERG = hERG (Homo sapiens, UniProt Q12809); experiment: HERG safety study (whole cell recordings, CHO cells); settings: CHO cells stably expressing hERG channels, pH 7.4
Chain of hERG (Q12809 whole entry): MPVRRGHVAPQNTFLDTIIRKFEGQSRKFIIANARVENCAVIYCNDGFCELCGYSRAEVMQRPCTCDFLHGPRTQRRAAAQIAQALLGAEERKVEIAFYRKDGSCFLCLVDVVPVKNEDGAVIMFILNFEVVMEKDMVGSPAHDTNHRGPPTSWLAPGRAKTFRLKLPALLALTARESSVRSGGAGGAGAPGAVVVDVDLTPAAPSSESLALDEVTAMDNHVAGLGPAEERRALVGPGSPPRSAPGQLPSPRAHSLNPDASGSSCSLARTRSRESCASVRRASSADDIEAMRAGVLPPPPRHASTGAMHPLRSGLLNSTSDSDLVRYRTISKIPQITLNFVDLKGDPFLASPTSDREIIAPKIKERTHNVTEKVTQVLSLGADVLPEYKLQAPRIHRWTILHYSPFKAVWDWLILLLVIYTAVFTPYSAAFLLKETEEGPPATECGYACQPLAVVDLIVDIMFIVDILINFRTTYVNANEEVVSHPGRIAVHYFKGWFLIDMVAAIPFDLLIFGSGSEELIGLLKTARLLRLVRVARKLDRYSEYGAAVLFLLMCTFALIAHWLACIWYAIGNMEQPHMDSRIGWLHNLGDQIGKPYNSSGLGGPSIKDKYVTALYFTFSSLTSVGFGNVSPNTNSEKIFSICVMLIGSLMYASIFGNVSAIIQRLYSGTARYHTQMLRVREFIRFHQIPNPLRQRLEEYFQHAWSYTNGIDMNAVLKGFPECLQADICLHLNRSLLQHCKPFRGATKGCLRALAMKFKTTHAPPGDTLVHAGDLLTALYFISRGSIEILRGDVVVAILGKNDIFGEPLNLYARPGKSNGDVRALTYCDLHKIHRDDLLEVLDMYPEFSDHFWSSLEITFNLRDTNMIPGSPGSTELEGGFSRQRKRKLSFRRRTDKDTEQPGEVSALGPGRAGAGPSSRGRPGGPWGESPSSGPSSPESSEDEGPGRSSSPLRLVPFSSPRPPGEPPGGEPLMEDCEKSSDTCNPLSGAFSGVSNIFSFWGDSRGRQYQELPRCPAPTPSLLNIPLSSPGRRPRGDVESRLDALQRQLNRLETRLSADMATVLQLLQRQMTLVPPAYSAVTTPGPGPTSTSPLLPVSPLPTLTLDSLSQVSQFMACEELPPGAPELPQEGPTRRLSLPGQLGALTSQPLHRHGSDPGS

| Compound | microsomal CLint at 1 μM [1] [µL/min/mg] | microsomal CLint at 1 μM [2] [µL/min/mg] | microsomal CLint at 1 μM [3] [µL/min/mg] | inhibition at 1 µM (hERG) [%] |
| --- | --- | --- | --- | --- |
| C[C@@H]1CCC[C@H](C)N1NC(=O)c1ccc2c(c1)N=C(c1cccc(F)c1)c1ccccc1S2 [drawing 1758] | 513 | 659 | 318 |  |
| O=C(NCc1ccccn1)c1ccc2c(c1)N=C(c1ccc(Cl)cc1)c1ccccc1S2 [drawing 1760] | 37 | 73 | 46 |  |
| CC(C)CNC(=O)c1ccc2c(c1)N=C(c1ccc(F)cc1)c1ccccc1S2 [drawing 1761] | 43 | 354 | 125 |  |
| Cc1ccsc1C1=Nc2cc(C(=O)NCc3ccco3)ccc2Sc2ccccc21 [drawing 1762] | 155 | 755 | 395 |  |
| O=C(NCc1ccccc1)c1ccc2c(c1)N=C(c1cccc(Cl)c1)c1ccccc1S2 [drawing 1767] | 23 | 205 | 85 |  |
| O=C(NCCc1cccnc1)c1ccc2c(c1)N=C(c1cccc(Cl)c1)c1ccccc1S2 [drawing 1770] | 130 | 82 | 154 |  |
| O=C(NCc1ccc(F)cc1)c1ccc2c(c1)N=C(c1ccc(Cl)cc1)c1ccccc1[S+]2[O-] (centres unmarked) [drawing 1772] | 11 | 37 | 31 |  |
| O=C(NCc1ccc(F)cc1)c1ccc2c(c1)N=C(C1CCCCC1)c1ccccc1S2 [drawing 1775] | 58 | 275 | 493 |  |
| Cc1ccsc1C1=Nc2cc(C(=O)NCc3cccs3)ccc2Sc2ccccc21 [drawing 1781] | 227 | 852 | 542 |  |
| O=C(NN1CCCCC1)c1ccc2c(c1)N=C(c1ccc(Cl)cn1)c1ccccc1S2 [drawing 1786] | 64 | 416 | 290 |  |
| O=C(NCc1ccccc1)c1ccc2c(c1)N=C(c1ccc(Cl)cc1)c1ccccc1S2 [drawing 1801] | 23 | 166 | 63 |  |
| O=C(NCc1ccco1)c1ccc2c(c1)N=C(c1ccc(Cl)cc1)c1ccccc1S2 [drawing 1803] | 29 | 97 | 75 |  |
| O=C(NCCCC(F)(F)F)c1ccc2c(c1)N=C(c1ccc(Cl)cc1F)c1ccccc1S2 [drawing 1809] |  |  |  | 24 |
| O=C(NCCCC(F)(F)F)c1ccc2c(c1)N=C(c1ccc(Cl)s1)c1ccccc1S2 [drawing 1810] |  |  |  | 14 |
| CC(C)CNC(=O)c1ccc2c(c1)N=C(c1ccc(Cl)cc1)c1ccc(F)cc1S2 [drawing 1811] |  |  |  | 58 |
| CCCCNC(=O)c1ccc2c(c1)N=C(c1ccc(Cl)cc1)c1ccccc1S2 [drawing 1812] |  |  |  | 49 |
| CC(C)CNC(=O)c1ccc2c(c1)N=C(c1ccc(Cl)s1)c1ccccc1S2 [drawing 1813] |  |  |  | 26 |
| O=C(NC1CCCCC1)c1ccc2c(c1)N=C(c1ccc(F)cc1)c1ccccc1S2 [drawing 1814] |  |  |  | 45 |
| O=C(NN1CCCCCC1)c1ccc2c(c1)N=C(c1ccc(Cl)s1)c1ccccc1S2 [drawing 1816] |  |  |  | 30 |
| O=C(NCCCC(F)(F)F)c1ccc2c(c1)N=C(c1cccc(F)c1)c1ccccc1S2 [drawing 1817] |  |  |  | 45 |
| CC(C)CNC(=O)c1ccc2c(c1)N=C(c1cccc(Cl)c1)c1ccccc1S2 [drawing 1819] |  |  |  | 93 |
| CCCCNC(=O)c1ccc2c(c1)N=C(c1ccc(Br)cn1)c1ccccc1S2 [drawing 1820] |  |  |  | 78 |
| CCCCNC(=O)c1ccc2c(c1)N=C(c1ccc(Cl)cc1)c1ccc(F)cc1S2 [drawing 1821] |  |  |  | 34 |
| CC(C)CCNC(=O)c1ccc2c(c1)N=C(c1cccc(Cl)c1)c1ccccc1S2 [drawing 1822] |  |  |  | 59 |
| COc1cccc(C2=Nc3cc(C(=O)NCCCC(F)(F)F)ccc3Sc3ccccc32)n1 [drawing 1823] |  |  |  | 35 |
| CCCCNC(=O)c1ccc2c(c1)N=C(c1ccc(Cl)s1)c1ccccc1S2 [drawing 1824] |  |  |  | 14 |
